The values below come from US7033829B2, “Method to inhibit cell growth using oligonucleotides” (Trustees of Boston University, priority 2000, dated 2006).

The subject of data set [1] is MM-AN cells. Put plainly: Tumorigenicity of pretreated MM-AN cells in SCID mice. As to conditions: cells pretreated 40 μM 48 hours; day 18 (diluent 322±45). It counts as in vivo. The protocol:
To study the effect of T-oligo on the tumorigenicity of MM-AN cells, cells were grown in DMEM with 5% fetal bovine serum (FBS) and treated with 40 μM of T-oligo, complement, or diluent alone for 48 hours. The cells were then harvested with trypsin/EDTA and the percent viability determined by trypan blue exclusion. […] The tumorigenicity of these melanoma cells was determined by injecting 1×10^6 viable cells in balanced salt solution subcutaneously over the right scapular region of SCID mice (3 groups of 5 mice) to produce tumors. The animals were sacrificed by CO2 inhalation 18 days after treatment and the tumor size evaluated with calipers. Tumors were processed for hematoxylin and eosin staining and the melanocytic origin of the tumors was confirmed by immunohistochemical staining of the lesion using HMB-45 monoclonal antibody, which recognizes gp-100, a conventional marker for human melanoma.

Data set [2] relates to MM-AN cells. As to the kind of experiment: Metastatic potential of pretreated MM-AN cells in SCID mice. It counts as in vivo. As to conditions: for animals that developed multiple metastases: 5 mice per group, 40 days; for METASTASIS FREE: animals of 5; for Total Tumor Load (5 animals): mouse, in vivo; for Average tumors per animal: visible tumors, 40 days (diluent 15.8). The protocol: To study the effect of T-oligo on the metastatic potential of melanoma cells, cultures of MM-AN cells were treated for 48 hours with T-oligo, complement or diluent alone and harvested as described above. 1×10^6 cells in balanced salt solution were injected into the lateral tail vein of 5-week old SCID mice (3 groups of 5 mice). After 40 days, mice were sacrificed by CO2 inhalation, an autopsy performed and organs examined macroscopically for visible metastatic lesions.

The test system of data set [3] is p21/Waf 1/Cip 1 gene. As to the kind of experiment: p21 mRNA Northern blot in SCC12F cells. Type of data set: cell-based, human. As to conditions: for p21 mRNA level relative to diluent control: 48 hours, FIG. 13; for increase of p21/Waf 1/Cip 1 mRNA level: within 48 hours. The procedure: The induction of melanogenesis in Cloudman S91 mouse melanoma cells by a five-nucleotide oligomer CATAC (SEQ ID NO: 6) and a nine-nucleotide oligomer, GAGTATGAG (SEQ ID NO: 1) was examined. Duplicates of Cloudman S91 murine melanoma cells were incubated with either 100 μM oligo or an equal volume of diluent (H2O) for 5 days. The cells were then collected, counted, and an equal number of cells were pelleted for melanin analysis. […] Variations of this oligonucleotide were evaluated: a scrambled 9-mer (TAGGAGGAT; SEQ ID NO: 2) and two truncated versions, a 7-mer (AGTATGA; SEQ ID NO: 3) and second 5-mer (GTATG; SEQ ID NO: 4). […] The truncated versions (SEQ ID NOs: 3 and 4) were also active, inducing 640% and 670% increases, respectively.
pTpT was previously found to inhibit cell cycle progression, at least in part through activation of p53 and subsequent upregulation of the cyclin dependent kinase inhibitor p21. Cultures of the human keratinocyte line SCC12F were treated with pTpT, SEQ ID NO: 1, SEQ ID NO: 6 or diluent alone as a negative control, collected and counted 48 hours later and processed for northern blot analysis of p21 mRNA expression. […] Thus, the sequences of the present invention activate p53 and inhibit cell proliferation similar to the effect of pTpT.

The nature of data set [4]: Skin penetration of fluorescently-labeled oligonucleotides (ear). Type of data set: in vivo, Mice. The settings on record: in propylene glycol, 4 hours. The protocol: The compounds of the present invention were tested for skin penetration and in vivo melanogenic activity. Mice were treated (on their ears) with fluorescently-labeled pTpT or SEQ ID NO: 1 (comprising a 5′ phosphate) in propylene glycol for 4 hours, then ear skin was sectioned and examined by confocal microscopy. […] Thus pTpT and SEQ ID NO: 1 comparably penetrate the skin barrier.

Data set [5] concerns S91 cells. As to the kind of experiment: Cellular uptake of FAM-labeled oligonucleotides in S91 cells. Type of data set: in vitro ADME, mouse. The settings on record: 4 hours. The procedure: Fluorescein phosphoramidite (FAM) labeled oligonucleotides were added to cultures of S91 cells for 4 hours and the cells were then prepared for confocal microscopy. Nuclei, identified by staining with propidium iodide, appeared red and FAM-labeled oligonucleotides appeared green. Co-localization of red and green signals was assigned a yellow color by the computer. […] There was no change in the profile of oligonucleotide uptake after 6 and 24 hours.

Data set [6] concerns SCC12F cells. As to the kind of experiment: FACS cell cycle analysis of SCC12F cells. Type of data set: cell-based, human. The settings on record: for cells in the S phase / S-phase arrest: 48 hours (control 26%). The protocol:
However, when increasing concentrations of the phosphorothioate 11mer-1 were also added to these cultures, fewer cells became arrested (FIGS. 21A–21G).
Exposure of keratinocytes to UVB irradiation affects the expression of genes involved in cell cycle arrest, DNA repair and cytokine production. Single-stranded oligonucleotides sharing sequence homology with the telomere 3′ overhang, when introduced into cells, mimic these UV effects. To identify other genes that may be similarly modulated, cells of keratinocyte origin (SCC12F; a human epidermal squamous cell carcinoma line provided by Dr. James Rheinwald of Harvard University) were exposed to solar simulated irradiation (SSR) (20 mJ/cm^2, measured at 285±5 nm), to an 11-base oligonucleotide (pGTTAGGGTTAG; SEQ ID NO:5) homologous to the telomere overhang (T-oligo), or to a complementary sequence as control [pCTAACCCTAAC; (SEQ ID NO:9) control oligonucleotide]. […] These are mitochondrial-transcribed genes whose encoded proteins participate in cellular respiration.
In order to determine whether these oligonucleotides similarly affect other human cell types and to investigate the role of p53, we treated a squamous cell carcinoma line (SCC12F) (Rheinwald, J. G., et al., 1983, Human carcinogenesis. pp. 86–96. Academic Press (New York)) that over-expresses a presumptively mutated p53 (Eller, M. S. and B. A. Gilchrest. 2000, Pigment Cell Res. 13: 94–97) and a p53-null osteosarcoma cell line (Saos-2) (Wang, L. H., et al., 1998, Anticancer Res 18: 321–325) with either diluent alone, 11mer-1, 11mer-2 or 11mer-3. Cultures were analyzed by FACS after 48 hours (FIGS. 33A–33H). […] Although the percentage of cells in the S-phase in 11mer-1-treated SCC12F and Saos-2 cells was virtually identical (53±6% and 52±1%, respectively), the G0/G1 and G2/M content of the two cell types were somewhat different. This may reflect differential uptake of the oligonucleotide leading to dose-dependent differences, and/or different pathways acting in these cells to control the cell cycle. No apoptotic response to the oligonucleotides was detected in either cell type within 72 hours.

Oligonucleotides are written 5' to 3', each unit as a sugar letter and its base; * is a phosphorothioate linkage, no mark a phosphodiester; rarer units and linkages stand in square brackets, end groups in braces. Plain capitals give the bases only. d = 2'-deoxy (DNA); {P} = phosphate Some results are limits rather than exact numbers.

Regarding “pCTAACCCTAAC (DNA, 5' {P}, backbone not given here) [SEQ ID NO: 9, reference compound]”, in data set [1], the Mean tumor volume stood at 238±50 mm^3. Moreover, the “animals that developed multiple metastases” value in data set [2] is on record as “All five animals”. Also, the Animals with tumors is 2/5 in data set [2] (Site: Adrenal); 1/5 in data set [2] (Site: Bone); 3/5 in data set [2] (Site: Brain); 3/5 in data set [2] (Site: Brown fat); 4/5 in data set [2] (Site: Kidney); 2/5 in data set [2] (Site: Liver). For the same substance, the Animals with tumors is 3/5 in data set [2] (Site: Lung), 1/5 in data set [2] (Site: Miscellaneous) and 4/5 in data set [2] (Site: Pancreas). Moreover, the Total tumors was 3 in data set [2] (Site: Adrenal); 3 in data set [2] (Site: Bone); 3 in data set [2] (Site: Brain); 8 in data set [2] (Site: Brown fat); 7 in data set [2] (Site: Kidney); 4 in data set [2] (Site: Liver). For the same substance, the figures for the Total tumors in data set [2] (Site: Lung), in data set [2] (Site: Miscellaneous) and in data set [2] (Site: Pancreas) were 6, 7 and 7, respectively. Besides, in data set [2], the “METASTASIS FREE” value is on record as 0/5. Also, in data set [2], the “Total Tumor Load (5 animals)” value is on record as 48. Besides, the “Average tumors per animal” value in data set [2] is 9.6.

As for thymidine dinucleotide [pTpT], in data set [3], the “p21 mRNA level relative to diluent control” value was “twice that of control cells” and the “increase of p21/Waf 1/Cip 1 mRNA level” value is 100–150%. Further, the “skin penetration (confocal microscopy)” value in data set [4] was “brightly stained epidermis and hair follicles”. Besides, the “cellular uptake and localization (confocal microscopy, FACS)” value in data set [5] is given as “strong green fluorescence in the cytoplasm, but only a small amount of nuclear localization”.

In the case of “11mer-1-S: phosphorothioate 11mer-1 (dG*dT*dT*dA*dG*dG*dG*dT*dT*dA*dG; further chemistry not fully specified)”, the “cells in the S phase / S-phase arrest” value in data set [6] was “did not induce the S-phase arrest”.

Take “pGAGTATGAG (DNA, 5' {P}, backbone not given here) [SEQ ID NO: 1]”: in data set [3], the “p21 mRNA level relative to diluent control” value is reported as around 3 fold and the “increase of p21/Waf 1/Cip 1 mRNA level” value is recorded as 200–300%. The “skin penetration (confocal microscopy)” value in data set [4] is “brightly stained epidermis and hair follicles”. Besides, in data set [5], the “cellular uptake and localization (confocal microscopy, FACS)” value is reported as “intense staining that strongly localized to the nucleus”.

For the substance “pGTTAGGGTTAG (DNA {P}-dGdTdTdAdGdGdGdTdTdAdG) [SEQ ID NO: 5]”, the Mean tumor volume in data set [1] was 56±13 mm^3. Also, the “animals that developed multiple metastases” value in data set [2] is “one of five animals”. For the same substance, the Animals with tumors in data set [2] (Site: Adrenal) is 1/5; in data set [2] (Site: Bone) it was 0/5; in data set [2] (Site: Brain), 1/5; in data set [2] (Site: Brown fat) it was 0/5; in data set [2] (Site: Kidney), 0/5; in data set [2] (Site: Liver), 0/5. In addition, the Animals with tumors in data set [2] (Site: Lung), in data set [2] (Site: Miscellaneous) and in data set [2] (Site: Pancreas) was 0/5 in each case. Moreover, the Total tumors in data set [2] (Site: Adrenal) was 2; in data set [2] (Site: Bone) it was 0; in data set [2] (Site: Brain), 2; in data set [2] (Site: Brown fat) it was 0; in data set [2] (Site: Kidney) it was 0; in data set [2] (Site: Liver), 0. Besides, the Total tumors in data set [2] (Site: Lung), in data set [2] (Site: Miscellaneous) and in data set [2] (Site: Pancreas) was 0 in each case. Also, in data set [2], the “METASTASIS FREE” value is on record as 4/5. Moreover, the “reduction of average volume of macroscopic metastatic tumors” value in data set [2] (compared to complement treated animals) is listed as around 80%; in data set [2] (compared to diluent treated animals), “about 85%”. The “Total Tumor Load (5 animals)” value in data set [2] was 4. The “Average tumors per animal” value in data set [2] was found to be 0.8. For the same substance, the “cells in the S-phase” value in data set [6] (40 μM, 48 hours) amounted to 53±6%. Also, the “cells in the S phase / S-phase arrest” value in data set [6] is “Forty-three precent”. Also, in data set [6] (Example 27 (control cells <23%)), the “cells arrested in the S-phase” value is above 43%.
